# According to patent US20120225909A1, “INDAZOLE ANALOG” (priority 2009, published 2012):
# Experiments:
# [1] = target: T1, human β1-adrenergic receptor (Homo sapiens, UniProt P08588); assay: Test Case 2-C: human β1-adrenergic receptor agonist activity (Cerep cellular functional GPCR, beta 1); assay type: cell-based; settings: concentration 10 μM, isoproterenol = 100%
# T1 construct: expressed in transfected cells; host or cells: CHO (Chinese hamster ovary) cells, pcDNA3
# Text: (§1) Measurement of Human β1-Adrenergic Receptor Agonist Activity
# [2] = target: T2, human α1A-adrenergic receptor (Homo sapiens, UniProt P35348); assay: Test Case 4-B: human α1A-adrenergic receptor agonist activity (Cerep cellular functional GPCR, alpha 1A); assay type: cell-based; parameters: expressed in transfected cells; settings: concentration 10 μM; for α1 receptor % of Control Agonist Response, Control; Epinephrine: epinephrine = 100%; for α1 receptor % of Control Agonist Response, Control; Norepinephrine: norepinephrine = 100%
# T2 sequence (P35348 1-466): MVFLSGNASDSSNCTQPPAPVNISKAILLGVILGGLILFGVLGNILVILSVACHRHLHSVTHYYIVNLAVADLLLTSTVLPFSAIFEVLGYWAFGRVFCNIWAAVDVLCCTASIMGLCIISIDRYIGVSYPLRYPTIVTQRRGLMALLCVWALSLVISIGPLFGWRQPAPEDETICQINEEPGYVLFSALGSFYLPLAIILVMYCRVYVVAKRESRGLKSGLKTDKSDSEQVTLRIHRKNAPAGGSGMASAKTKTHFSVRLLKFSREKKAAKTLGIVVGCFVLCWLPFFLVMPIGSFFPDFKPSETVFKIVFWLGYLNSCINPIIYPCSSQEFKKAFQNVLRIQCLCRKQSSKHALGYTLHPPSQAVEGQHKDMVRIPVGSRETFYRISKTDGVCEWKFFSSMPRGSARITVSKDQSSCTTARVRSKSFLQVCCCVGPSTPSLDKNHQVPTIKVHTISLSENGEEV
# Text: Measurement of Human α1A-Adrenergic Receptor Agonist Activity
# The human α1A-adrenergic receptor agonist activity] can be measured by […] Functional GPCR·Gs, alpha 1A (Ref. 722-36a) listed on p. 52 of the Cerep 2008 CATALOG IN VITRO PHARMACOLOGY & ADME-TOX.
# [3] = target: T2, human α1A-adrenergic receptor; assay: Test Case 4-A: human α1A-adrenergic receptor agonist activity (HEK293, Ca flux, Fura-2); assay type: cell-based; parameters: expressed in transfected cells; host or cells: HEK293 cells, pcDNA3.1; settings: for Emax: HEK293, read-out: α1A receptor I.A.; for α1A receptor I.A.: Test Case 4-A, maximum response of norepinephrine = 100%, Table 4
# Procedure, shortened: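 Fura-2AM-loaded HEK293 cells transfected with human α1A were preincubated for 180 s. Compound (sample plate 10^−5 to 10^−12 M) was added after ~30 s of 340/380 nm excitation ratio reading (500 nm emission, 2-s intervals), followed by 270 s more reading. Ca flux is the peak height: maximum ratio after addition minus the pre-addition ratio.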
# [4] = target: T3, human β2-adrenergic receptor (Homo sapiens, UniProt P07550); assay: Test Case 3-C: human β2-adrenergic receptor agonist activity (Cerep cellular functional GPCR, beta 2); assay type: cell-based; settings: concentration 10 μM, isoproterenol = 100%
# T3 construct: expressed in transfected cells; host or cells: CHO (Chinese hamster ovary) cells, pcDNA3
# T3 sequence (P07550 whole entry): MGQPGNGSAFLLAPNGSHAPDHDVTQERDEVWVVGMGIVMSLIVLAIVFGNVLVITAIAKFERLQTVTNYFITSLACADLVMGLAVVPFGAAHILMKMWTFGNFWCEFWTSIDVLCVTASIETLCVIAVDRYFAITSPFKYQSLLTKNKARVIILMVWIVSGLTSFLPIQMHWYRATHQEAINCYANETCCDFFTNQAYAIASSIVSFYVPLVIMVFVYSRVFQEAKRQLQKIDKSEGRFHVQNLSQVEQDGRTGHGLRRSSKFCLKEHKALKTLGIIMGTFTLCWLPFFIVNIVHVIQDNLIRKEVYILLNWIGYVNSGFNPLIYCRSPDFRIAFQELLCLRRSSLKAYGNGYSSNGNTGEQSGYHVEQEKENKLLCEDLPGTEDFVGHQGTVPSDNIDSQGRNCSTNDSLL
# Text: (§2) Measurement of Human β2-Adrenergic Receptor Agonist Activity
# [5] = target: T4, human β3-adrenergic receptor (Homo sapiens, UniProt P13945); assay: Test Case 1-B: human β3-adrenergic receptor agonist activity (cAMP-Screen, 96-well); assay type: cell-based; settings: for Emax: 0.5 h, read-out: β3 receptor I.A.; for EC50 / β3 receptor I.A.: Test Case 1-B; for EC50: CHO cells, cAMP; for β3 receptor I.A.: maximum response of isoproterenol = 100%
# T4 construct: A full-length human β3 gene is obtained from a human genomic library (made by Clontech) using this as the probe; expressed in transfected cells; host or cells: CHO (Chinese hamster ovary) cells, pcDNA3
# T4 sequence (P13945 whole entry): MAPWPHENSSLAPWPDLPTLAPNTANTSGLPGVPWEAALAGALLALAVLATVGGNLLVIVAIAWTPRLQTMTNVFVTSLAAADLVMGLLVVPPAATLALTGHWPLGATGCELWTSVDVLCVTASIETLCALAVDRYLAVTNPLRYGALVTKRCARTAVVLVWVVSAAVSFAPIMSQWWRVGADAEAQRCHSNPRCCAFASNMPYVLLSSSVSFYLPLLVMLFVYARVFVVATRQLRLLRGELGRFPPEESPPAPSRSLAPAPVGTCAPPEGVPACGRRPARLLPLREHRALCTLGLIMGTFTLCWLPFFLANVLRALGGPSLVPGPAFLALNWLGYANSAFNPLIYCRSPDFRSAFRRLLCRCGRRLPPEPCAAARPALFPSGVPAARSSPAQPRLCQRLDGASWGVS
# Procedure, shortened: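 CHO cells stably transfected with full-length human β3 gene, serum-starved 15 min, then exposed to serially diluted compound in Ham's F-12 with 100 mmol/L HEPES and 1 mmol/L IBMX (diluent concentrations) for 30 min. Cells lysed 30 min at 37 °C; cAMP quantified by cAMP-Screen immunoassay.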
# [6] = target: T1, human β1-adrenergic receptor; assay: Test Case 2-B: human β1-adrenergic receptor agonist activity; assay type: cell-based; settings: for Emax: read-out: β1 receptor I.A.
# Method: as §1
# The human β1-adrenergic receptor agonist activity is measured by the same method as in Test Case 1-B using CHO (Chinese hamster ovary) cells transfected by a human β1 gene inserted in pcDNA3 (Invitrogen).
# [7] = test system: pentobarbital-anesthetized rats; assay: Test Case 9: effects on the blood pressure and heart rate in pentobarbital-anesthetized rats; assay type: in vivo, rat; settings: anesthetized male SD rats, 3 mg/kg intravenous over 30 seconds, maximum change, mean±standard deviation
# Method: Effects on the blood pressure and heart rate in pentobarbital-anesthetized rats
# The blood pressure and heart rate of rats under pentobarbital anesthesia are measured, and the effects of rapid intravenous administration of the test compound on the blood pressure and heart rate can be studied. After anesthetizing male SD rats (Japan SLC) by intraperitoneal administration of 50 mg/kg of pentobarbital sodium (Tokyo Chemical Industry Co., Ltd.), 25 mg/kg of pentobarbital sodium is administered subcutaneously as maintenance anesthesia. The left femoral vein is exposed and stripped, and a SP10 polyethylene tube filled with saline (connected to a three-way stopcock via a ¼ venous needle) is inserted and left in place in the vein.
# The inside of the left thigh is cut, and the femoral artery is exposed and stripped. A polyethylene tube filled with heparinized physiological saline solution (SP31, connected to a three-way stopcock via a Terumo injection needle 22G) is inserted and connected to a pressure transducer. The blood pressure is measured from the pressure transducer via a strain pressure amplifier (AP-641G, Nihon Kohden). The heart rate is measured with the pulse wave of the blood pressure as a trigger via a heart rate counter (AT-601G, Nihon Kohden). The blood pressure, mean blood pressure, and heart rate are output to a recorder and recorded. Furthermore, the mean blood pressure is recorded via the strain pressure amplifier (AP-641G) using the formula {[…]}.
# Specifically, 3 mg/mL of test compound is administered rapidly at a volume of 1 mL/kg. The relative value (%) of the values at each point in time versus the mean blood pressure and heart rate before beginning administration are determined for each individual, and the mean±standard deviation of the relative value (%) at the time of the maximum change in each parameter is determined.
# [8] = target: T3, human β2-adrenergic receptor; assay: Test Case 3-B: human β2-adrenergic receptor agonist activity; assay type: cell-based; settings: for Emax: read-out: β2 receptor I.A.
# Method: as §2
# The human β2-adrenergic receptor agonist activity is measured by the same method as in Test Case 1-B using CHO (Chinese hamster ovary) cells transfected by a human β2 gene inserted in pcDNA3 (Invitrogen).
# T1 sequence (P08588 whole entry): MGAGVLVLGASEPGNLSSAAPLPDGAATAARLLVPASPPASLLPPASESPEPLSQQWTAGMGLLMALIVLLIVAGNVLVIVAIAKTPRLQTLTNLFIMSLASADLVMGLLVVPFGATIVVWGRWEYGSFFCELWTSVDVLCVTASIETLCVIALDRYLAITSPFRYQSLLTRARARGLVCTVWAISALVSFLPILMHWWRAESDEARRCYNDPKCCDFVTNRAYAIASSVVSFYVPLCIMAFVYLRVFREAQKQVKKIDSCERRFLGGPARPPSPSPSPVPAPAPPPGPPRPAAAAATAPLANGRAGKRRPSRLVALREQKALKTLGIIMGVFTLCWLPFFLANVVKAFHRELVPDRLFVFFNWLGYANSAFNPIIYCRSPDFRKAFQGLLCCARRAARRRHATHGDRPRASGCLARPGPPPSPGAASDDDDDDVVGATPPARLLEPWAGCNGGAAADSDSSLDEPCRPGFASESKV
structure (smiles),measurement,setting,value
"Cc1n[nH]c2cc(OCCNC[C@H](O)c3cccc(NS(=O)(=O)c4cc(F)ccc4F)c3)ccc12 [ex72, (R)-2, ? -difluoro-N-(3-(1-hydroxy-2-(2-(3-methylindazol-6-yloxy)ethylamino)ethyl)phenyl) benzenesulfonamide]",β1 receptor % of Control Agonist Response,[1],19%
same,"α1 receptor % of Control Agonist Response, Control; Epinephrine",[2],6.8%
same,"α1 receptor % of Control Agonist Response, Control; Norepinephrine",[2],5.9%
same,Emax,[3],1%
same,β2 receptor % of Control Agonist Response,[4],1.8%
same,Emax,[5],92%
same,EC50,[5],0.0083 µM
"Cc1n[nH]c2cc(OCCNC[C@H](O)c3cccc(NS(=O)(=O)c4c(F)cccc4F)c3)ccc12 [ex71, (R)-2,6-difluoro-N-(3-(1-hydroxy-2-(2-(3-methylindazol-6-yloxy)ethylamino)ethyl)phenyl) benzenesulfonamide]",β1 receptor % of Control Agonist Response,[1],32%
same,"α1 receptor % of Control Agonist Response, Control; Epinephrine",[2],4.3%
same,"α1 receptor % of Control Agonist Response, Control; Norepinephrine",[2],3.7%
same,α1A receptor I.A.,[3],2%
same,β2 receptor % of Control Agonist Response,[4],1.5%
same,EC50,[5],0.152 µM
same,β3 receptor I.A.,[5],96%
"O=S(=O)(Nc1cccc([C@@H](O)CNCCOc2ccc3c(Cl)n[nH]c3c2)c1)c1ccccc1F [ex158, (R)-N-(3-(2-(2-(3-chloroindazol-6-yloxy)ethylamino)-1-hydroxyethyl)phenyl)-2-fluorobenzene-sulfonamide]",β1 receptor % of Control Agonist Response,[1],17%
same,"α1 receptor % of Control Agonist Response, Control; Epinephrine",[2],7.8%
same,"α1 receptor % of Control Agonist Response, Control; Norepinephrine",[2],6.7%
same,Emax,[3],0%
same,β2 receptor % of Control Agonist Response,[4],1.6%
same,Emax,[5],90%
same,EC50,[5],0.062 µM
"COc1n[nH]c2cc(OCCNC[C@H](O)c3cccc(NS(=O)(=O)c4cccnc4F)c3)ccc12 [ex24, (R)-2-fluoro-N-(3-(1-hydroxy-2-(2-(3-methoxyindazol-6-yloxy)ethylamino)ethyl)phenyl)pyridine-3-sulfonamide]",β1 receptor % of Control Agonist Response,[1],6.1%
same,"α1 receptor % of Control Agonist Response, Control; Epinephrine",[2],5.6%
same,"α1 receptor % of Control Agonist Response, Control; Norepinephrine",[2],4.8%
same,β2 receptor % of Control Agonist Response,[4],1.2%
same,Emax,[5],41%
"Cc1n[nH]c2cc(OCCNC[C@H](O)c3cccc(NS(=O)(=O)c4cn[nH]c4)c3)ccc12 [ex82, (R)-N-(3-(1-hydroxy-2-(2-(3-methylindazol-6-yloxy)ethylamino)ethyl)phenyl)py-razole-4-sulfonamide]",Emax,[6],7%
same,increase in MBP (%),[7],5.7 ± 0.8%
same,Emax,[3],13%
same,Emax,[5],71%
same,EC50,[5],0.016 µM
same,Emax,[8],2%
"O=S(=O)(Nc1cccc([C@@H](O)CNCCOc2ccc3c(OC(F)F)n[nH]c3c2)c1)c1ccccc1F [ex107, (R)-N-(3-(2-(2-(3-(difluoromethoxy)-indazol-6-yloxy)ethylamino)-1-hydroxyethyl)phenyl)-2-fluorobenzene-sulfonamide]",β1 receptor % of Control Agonist Response,[1],8.7%
same,"α1 receptor % of Control Agonist Response, Control; Epinephrine",[2],17%
same,"α1 receptor % of Control Agonist Response, Control; Norepinephrine",[2],14%
same,Emax,[3],1%
same,β2 receptor % of Control Agonist Response,[4],−0.6%
same,Emax,[5],75%
same,EC50,[5],0.101 µM
"COc1n[nH]c2cc(OCCNC[C@H](O)c3cccc(NS(=O)(=O)c4cccc(N)c4)c3)ccc12 [ex41, (R)-3-amino-N-(3-(1-hydroxy-2-(2-(3-methoxyindazol-6-yloxy)ethylamino)ethyl)phenyl) benzenesulfonamide]",β1 receptor I.A.,"[6]; Test Case 2-B, maximum response of isoproterenol = 100%",12%
same,increase in MBP (%),[7],5.7 ± 0.8%
same,α1A receptor I.A.,[3],0%
same,EC50,[5],0.00021 µM
same,β3 receptor I.A.,[5],76%
same,β2 receptor I.A.,"[8]; Test Case 3-B, maximum response of isoproterenol = 100%",5%
"COc1n[nH]c2cc(OCCNC[C@H](O)c3cccc(NS(=O)(=O)c4cccs4)c3)ccc12 [ex2, (R)—N-(3-(1-hydroxy-2-(2-(3-methoxyindazol-6-yloxy)ethylamino)ethyl)phenyl)thiophene-2-sulfonamide]",Emax,[6],6%
same,increase in MBP (%),[7]; 3 mg/kg,4.9 ± 0.9%
same,Emax,[3],0%
same,Emax,[5],109%
same,EC50,[5],0.0035 µM
same,Emax,[8],3%
Cc1n[nH]c2cc(OCCNC[C@H](O)c3cccc(NS(=O)(=O)c4cccnc4F)c3)ccc12 [ex86],β1 receptor % of Control Agonist Response,[1],8.8%
same,"α1 receptor % of Control Agonist Response, Control; Epinephrine",[2],−0.4%
same,"α1 receptor % of Control Agonist Response, Control; Norepinephrine",[2],−0.3%
same,β2 receptor % of Control Agonist Response,[4],−0.7%
same,EC50,[5],0.401 µM
same,β3 receptor I.A.,[5],80%
"COc1n[nH]c2cc(OCCNC[C@H](O)c3cccc(NS(=O)(=O)c4ccsc4)c3)ccc12 [ex11, (R)-N-(3-(1-hydroxy-2-(2-(3-methoxyindazol-6-yloxy)ethylamino)ethyl)phenyl) thiophene-3-sulfonamide]",Emax,[6],3%
same,increase in MBP (%),[7]; 3 mg/kg,6.1 ± 3.7%
same,Emax,[3],0%
same,Emax,[5],115%
same,EC50,[5],0.0032 µM
same,Emax,[8],3%
